A value given as a limit tells only on which side of the number the result lay.

This note sets out measurements from ChEMBL document CHEMBL3600349 (Bioorg Med Chem Lett, 2015).

The target in series [1] is Melanin-concentrating hormone receptor 1 (Homo sapiens, UniProt Q99705). In words: Displacement of [125I]-MCH from human MCH-R1 expressed in CHO/Galpha16 cells after 60 mins by scintillation counting. Type of series: cell-based. On the technique in general: In a radioligand displacement assay an active substance lowers the binding of a labelled ligand.
Series [2] in a line: Lipophilicity, log P of the compound by HPLC analysis. Type of series: physicochemical.
Series [3] in a line: Half life in rat liver microsomes. Type of series: ADME.
The nature of series [4]: Intrinsic clearance in human hepatocytes assessed per 10^6 cells. Type of series: ADME, cell-based, Hepatocyte. The conditions noted are these: read-out: CLH.
Another series concerns the target hERG (KCNH2) (Homo sapiens, UniProt Q12809). The experiment in a line: Inhibition of human ERG at 10 uM by patch clamp assay. For orientation: Patch clamp records ionic current or voltage across a cell membrane.
The test system of another series is U-937. In words: Toxicity in human U937 cells assessed as first effect concentration for phospholipidosis by nile red uptake assay. It is filed as cell-based.
Another series has as its system Rattus norvegicus. The experiment in a line: Antiobesity activity in diet-induced obese Wistar rat model assessed as reduction of body weight at 5 mg/kg, po qd after 4 weeks. Details: scale not given: the % may be the effect or the level left. It is filed as functional.
The species named for series [5] is Homo sapiens. The experiment in a line: Selectivity ratio, ratio of muscarinic M1 receptor (unknown origin) to human MCH-R1.
The species entered for series [6] is Homo sapiens. In words: Selectivity ratio, ratio of 5HT2A receptor (unknown origin) to human MCH-R1.

Chain of Melanin-concentrating hormone receptor 1 (Q99705 whole entry): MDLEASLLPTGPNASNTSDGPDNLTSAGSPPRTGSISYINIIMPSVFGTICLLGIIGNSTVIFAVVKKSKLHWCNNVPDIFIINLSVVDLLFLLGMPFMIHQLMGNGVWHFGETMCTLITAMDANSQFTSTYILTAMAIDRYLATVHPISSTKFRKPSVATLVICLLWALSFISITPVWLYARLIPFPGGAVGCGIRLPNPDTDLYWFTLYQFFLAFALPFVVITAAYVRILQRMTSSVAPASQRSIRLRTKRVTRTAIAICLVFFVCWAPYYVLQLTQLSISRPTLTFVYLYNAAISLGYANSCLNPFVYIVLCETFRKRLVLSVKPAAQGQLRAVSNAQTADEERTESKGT
Chain of hERG (KCNH2) (Q12809 whole entry): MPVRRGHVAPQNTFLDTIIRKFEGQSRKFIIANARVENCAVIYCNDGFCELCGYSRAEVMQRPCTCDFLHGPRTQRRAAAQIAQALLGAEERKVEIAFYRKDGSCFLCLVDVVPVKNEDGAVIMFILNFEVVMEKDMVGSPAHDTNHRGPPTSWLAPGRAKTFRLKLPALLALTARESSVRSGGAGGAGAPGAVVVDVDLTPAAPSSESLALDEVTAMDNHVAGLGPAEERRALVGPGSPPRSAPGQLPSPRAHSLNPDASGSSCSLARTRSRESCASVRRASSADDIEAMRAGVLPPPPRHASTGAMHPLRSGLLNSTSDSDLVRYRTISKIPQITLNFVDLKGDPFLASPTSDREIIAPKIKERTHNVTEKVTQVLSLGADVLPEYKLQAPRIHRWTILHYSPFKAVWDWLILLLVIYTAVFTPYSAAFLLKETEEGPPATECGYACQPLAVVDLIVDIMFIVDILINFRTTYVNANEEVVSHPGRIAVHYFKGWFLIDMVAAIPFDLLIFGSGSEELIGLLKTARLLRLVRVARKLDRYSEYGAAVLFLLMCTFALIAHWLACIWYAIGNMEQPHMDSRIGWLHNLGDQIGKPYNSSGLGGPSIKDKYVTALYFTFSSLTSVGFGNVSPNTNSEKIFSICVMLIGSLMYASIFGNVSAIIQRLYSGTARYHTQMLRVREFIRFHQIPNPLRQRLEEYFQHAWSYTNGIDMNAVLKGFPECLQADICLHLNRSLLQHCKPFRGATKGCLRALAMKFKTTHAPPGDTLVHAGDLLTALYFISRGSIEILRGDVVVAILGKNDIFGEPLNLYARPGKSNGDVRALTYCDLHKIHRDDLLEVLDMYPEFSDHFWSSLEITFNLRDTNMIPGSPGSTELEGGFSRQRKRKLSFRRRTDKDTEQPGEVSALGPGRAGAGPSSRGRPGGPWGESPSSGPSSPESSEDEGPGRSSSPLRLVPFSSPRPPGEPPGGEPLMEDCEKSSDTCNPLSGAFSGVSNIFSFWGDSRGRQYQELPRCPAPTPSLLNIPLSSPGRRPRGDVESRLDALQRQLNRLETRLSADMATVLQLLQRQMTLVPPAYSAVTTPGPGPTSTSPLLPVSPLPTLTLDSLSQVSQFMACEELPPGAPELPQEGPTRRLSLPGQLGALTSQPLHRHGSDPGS

For the molecule `Cc1cc(CN(C)C)ccc1C(=O)Cn1ccc(OCc2ccc(Cl)cn2)cc1=O`, the IC50 in series [1] was 0.033 µM. Also, the logP in [2] came out at 2.7. This molecule yielded a half-life in [3] of 44 min. For the same molecule, in series [4], the hepatocyte CLint came to 14 µL/min/1e6 cells. Also, the inhibition at 10 µM at hERG (KCNH2) is 41%. In addition, the Activity in the series with U-937 is 50 µM.
As to `Cc1cc(CN(C)C)ccc1C(=O)Cn1ccc(OCc2ccc(Br)cn2)cc1=O`, in [2], the logP is 2.8. The half-life in series [3] worked out at 45 min. The hepatocyte CLint in series [4] turned out to be 21 µL/min/1e6 cells. For the same molecule, at 10 µM the inhibition against hERG (KCNH2) was 42%. Also, the Activity with U-937 worked out at 50 µM.
Molecule `Cc1cc(CN(C)C)ccc1C(=O)Cn1ncc(OCc2ccc(Cl)cn2)cc1=O` had a logP in [2] of 3.1. Further, in series [3], the half-life was > 45 min. Also, the Activity with U-937 was found to be 50 µM.
As to `CN(C)Cc1ccc(C(=O)Cn2ccc(OCc3ccc(Cl)cn3)cc2=O)cc1`, the IC50 in [1] stood at 0.041 µM. In series [2], the logP is 2.3. In series [3], the half-life is > 45 min. Moreover, the hepatocyte CLint in series [4] came to 69 µL/min/1e6 cells.
`CC(C)CC(N(C)C)C1(c2ccc(Cl)cc2)CCC1` (stereo not given) [SIBUTRAMINE]: the Activity in the series with Rattus norvegicus was 10.9%.
Turning to `Cc1cc(CN(C)C)ccc1C(=O)Cn1ccc(OCc2ccccc2)cc1=O`, the logP in [2] was determined as 3.3. For the same molecule, in series [3], the half-life is 24 min. Also, the hepatocyte CLint in series [4] was found to be 4 µL/min/1e6 cells. The same molecule came in with an inhibition at 10 µM on hERG (KCNH2) of 67%. Besides, the Activity with U-937 stood at 50 µM. For the same molecule, the Ratio in the series listed under Homo sapiens [5] and in the series listed under Homo sapiens [6] was > 200 in each case.
In series [2], `Cc1cc(CN(C)C)ccc1C(=O)Cn1ncc(OCc2ccc(Br)cn2)cc1=O` displayed a log partition coefficient (logP) of 3.4. For the same molecule, the half-life in series [3] is 29 min. Moreover, in series [4], the hepatocyte CLint amounted to 12 µL/min/1e6 cells. Moreover, in the series with U-937, the Activity is 50 µM.
The molecule `CN(C)Cc1ccc(CCn2ccc(OCc3ccccc3)cc2=O)cc1` gave a concentration for half-maximal inhibition (IC50) in [1] of 0.007 µM. Further, in [2], the logP came out at 3.2. This molecule also displayed a half-life in [3] of 5 min. Besides, the Activity in the series on U-937 stood at 100 µM.
Molecule `CN(C)Cc1ccc(C(=O)Cn2ccc(OCc3ccc(Br)cn3)cc2=O)cc1` gave a half-maximal inhibitory concentration (IC50) in series [1] of 0.028 µM. The same molecule yielded a logP in [2] of 2.5. The half-life in series [3] was found to be 32 min. Moreover, the hepatocyte CLint in series [4] worked out at 66 µL/min/1e6 cells.
Taken in the same sequence, the figures for `CN(C)Cc1ccc(C(=O)Cn2ncc(OCc3ccc(Br)cn3)cc2=O)cc1` were 0.022 µM, 3.1, 7 min and 58 µL/min/1e6 cells.
With `CN(C)Cc1ccc(C(=O)Cn2ccc(OCc3ccccc3)cc2=O)cc1`, in series [1], the IC50 was 0.013 µM. In series [2], this molecule showed a logP of 3. The molecule also returned a half-life in series [3] of 23 min. Moreover, in series [4], the hepatocyte CLint is 24 µL/min/1e6 cells. The inhibition at 10 µM against hERG (KCNH2) came to 63%. Moreover, in the series on U-937, the Activity came to 100 µM. Also, the Ratio in the series filed under Homo sapiens [5] and in the series filed under Homo sapiens [6] was > 200 each time.
With `CN(C)Cc1ccc(C(=O)Cn2ncc(OCc3ccccc3)cc2=O)cc1`, in series [1], the IC50 worked out at 0.01 µM. The molecule further had a logP in series [2] of 3.6. This molecule also gave a half-life in series [3] of 6 min. The hepatocyte CLint in series [4] was determined as 17 µL/min/1e6 cells.
For `CN(C)Cc1ccc(C(=O)Cn2ncc(OCc3ccc(Cl)cn3)cc2=O)cc1`, the concentration for half-maximal inhibition (IC50) in [1] stood at 0.025 µM. Further, the logP in [2] came to 2.9. In series [3], the half-life was 14 min. The same molecule displayed an inhibition at 10 µM against hERG (KCNH2) of 39%. Moreover, in the series on U-937, the Activity amounted to 50 µM.
In the case of `Cc1cc(CN(C)C)ccc1C(=O)Cn1ncc(OCc2ccccc2)cc1=O`, in series [1], the concentration for half-maximal inhibition (IC50) was found to be 0.0087 µM. In series [2], this molecule returned a logP of 3.8. Besides, in series [3], the half-life was found to be 15 min. Moreover, the hepatocyte CLint in series [4] was 4.8 µL/min/1e6 cells. At 10 µM the inhibition on hERG (KCNH2) was 88%. Besides, the Activity in the series on U-937 amounted to 50 µM.

A word on the IC50: it is the midpoint of a concentration-inhibition curve. As usually defined, the logP is a log measure of how a compound divides between an organic and an aqueous phase. What is called half-life is how long it takes for the measured level to halve. The inhibition is the relative decrease from the control value, in per cent.
